In PMC12419465, “Photoresponsive molecular tweezers modulate Taspase 1 activity” (RSC Chemical Biology, 2025):
Read-outs that look alike come from different tables or passages of the source.

How the values were obtained:
wildtype Taspase 1 = target: T1, wildtype Taspase 1 (Homo sapiens, UniProt Q9H6P5); experiment: Recombinant cleavage assay with GST-MLL2700–2850-GFP-His substrate; format: biochemical; details: for IC50: ligand conc. 10 - 100 µM, 200 nM Taspase 1, 5 µM substrate, n = 3, read-out: IC50 TW (recombinant cleavage, full-length protein); for Difference in inhibitory activity between E and Z isomers (times greater potency of E isomer): particularly at 50 μM
T1 sequence (Q9H6P5 1-233 limits assumed): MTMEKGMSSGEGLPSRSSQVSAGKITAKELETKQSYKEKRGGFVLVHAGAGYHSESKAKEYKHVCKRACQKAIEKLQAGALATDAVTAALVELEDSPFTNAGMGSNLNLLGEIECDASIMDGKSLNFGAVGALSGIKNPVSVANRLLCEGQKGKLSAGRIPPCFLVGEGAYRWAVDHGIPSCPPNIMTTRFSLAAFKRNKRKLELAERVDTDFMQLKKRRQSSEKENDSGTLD
T1 sequence (Q9H6P5 234-420 limits assumed): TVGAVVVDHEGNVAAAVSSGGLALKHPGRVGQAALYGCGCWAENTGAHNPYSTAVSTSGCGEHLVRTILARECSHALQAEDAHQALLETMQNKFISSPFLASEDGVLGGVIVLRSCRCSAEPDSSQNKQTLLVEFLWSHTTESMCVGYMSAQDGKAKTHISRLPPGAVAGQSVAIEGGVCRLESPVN
Description: The recombinant cleavage assay employing the recombinant fusion protein GST-MLL2700–2850-GFP-His, which contains the CS2 cleavage site of the Mixed-lineage leukemia (MLL) protein as a substrate for Taspase 1, was performed as described.[9,10]
Given that Taspase 1's active site is positioned directly at the base of the loop harboring the bipartite NLS (Fig. 1A, and Fig. S1), it is reasonable to expect that our photoswitchable tweezer constructs, which recognize this signal, might also influence proteolytic activity - similar to the inhibition observed with our “first-generation” multivalent ligands.[10] In principle the presence of a sterically demanding artificial ligand may hinder or even completely block substrate binding and subsequent cleavage. To assess this, we employed a well-established in vitro cleavage assay using a recombinant, truncated fusion protein harboring the second cleavage site (CS2) of the Mixed Lineage Leukemia 1 (MLL1) protein, a bona fide Taspase 1 substrate.[39] In this assay, the cleaved and uncleaved substrate fractions of the GST-MLL2700–2850-GFP-His substrate were separated on a Coomassie-stained gel, and signal intensities of the different cleavage bands were quantified (Fig. 7, Fig. S8, and Fig. S9). The addition of recombinant, proteolytically active Taspase 1 (200 nM) led to efficient substrate cleavage, which was inhibited by all photoswitchable tweezer constructs in a concentration-dependent manner. IC50 values for the full series of switchable tweezer constructs ranged from 20 to 50 μM, with measurements taken separately for both E and Z isomers Fig. (S9).
Fig. 7 Switchable tweezer constructs interfere with Taspase 1 proteolytic activity. Cleavage assay utilizing the cleavage site CS2 from the natural substrate MLL (GST-MLL2700–2850-GFP-His) and active wildtype Taspase 1. Inhibition of proteolysis was evaluated by the relative amount of uncleaved substrate. Briefly, 5 μM recombinant substrate were incubated with 200 nM wildtype Taspase 1-His and increasing concentrations of TWAAP0-4 (10 - 100 μM), pre-irradiated with either UV light (365 nm, violet), or green light (520 nm, green), or solvent only. Proteolytic activity in solvent-treated samples was set to 100%, and data from TWAAP-treated samples were normalized accordingly. IC50 values were determined by densitometric quantification of the cleavage bands from the gels shown in Fig. S9, followed by nonlinear curve fitting. These values were also used to generate the summary bar plots shown on the right. Data are shown as the mean ± SD from three independent experiments. Composed with https://BioRender.com.
Figure S8. Photoswitchable TWAAP constructs interfere with Taspase 1’s proteolytic activity.
Cleavage assay utilizing the cleavage site CS2 from the natural substrate MLL (GST -MLL2700-2850-GFP-His, 70 kDa) and active wildtype Taspase 1. Inhibition of proteolysis was evaluated by the relative amount of uncleaved in relation to cleaved substrate (50 kDa and 20 kDa, respectively). Briefly, 5 µM recombinant substrate were incubated with 200 nM wildtype Taspase 1-His and increasing concentrations (10 - 100 µM) of indicated TWAAP irradiated with UV (365 nm, left gel panels) or green light (520 nm, right gel panels). Solvent-treated samples (referred to as untreated, un.) served as reference, and as additional controls, Taspase 1 (-T) was omitted or only Taspase 1 (TASP1) was applied. Representative images of three independent experiments are shown. Composed with […]
Figure S9. Photoswitchable TWAAB constructs interfere with Taspase 1’s proteolytic activity. Cleavage assay utilizing the cleavage site CS2 from the natural substrate MLL (GST -MLL2700-2850-GFP-His, 70 kDa) and active wildtype Taspase 1. Inhibition of proteolysis was evaluated by the relative amount of uncleaved in relation to cleaved substrate (50 kDa and 20 kDa, respectively).
Briefly, 5 µM recombinant substrate were incubated with 200 nM wildtype Taspase 1-His and […]

[1] = target: T2, Cy5-labeled Taspase 1 loop (Homo sapiens, UniProt Q9H6P5); experiment: Fluorescence titration of Cy5-labeled Taspase 1 loop; format: binding; details: for Kd: 1:1 binding model, n = 3, read-out: KD TW (fluorescence titration, loop)
T2 construct: Cy5-labeled NLS-bearing loop peptide (aa S181-D233); purchased GeneCust; host or cells: synthetic peptide
T2 sequence (Q9H6P5 181-233): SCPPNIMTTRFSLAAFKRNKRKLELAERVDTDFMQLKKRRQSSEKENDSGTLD
Description: Fluorescence titration was conducted with a Taspase 1 loop with an N-terminal […] synthesized by GeneCust (Sequence: Cy5-[…]; NLS in bold) as described.[9,10] The fluorescence anisotropy assay was modified based on previously established protocols.[51] Measurements were conducted using an FP-8300 JASCO fluorescence spectrometer (JASCO GmbH). […] Binding curves of the average data were fitted with GraphPad Prism 10.4 (GraphPad) using the quadratic binding equation for one-site specific binding model: [drawing 4] with r = anisotropy, r0 = anisotropy without protein, rmax = maximum anisotropy, F = fluorescent probe (Cy5-labeled peptide) concentration, x = titrant concentration, KD = dissociation constant. All fitting curves have R^2-values between 0.88 and 0.98.
Since Importin binding critically depends on the basic NLS clusters within the Taspase 1 loop, pull-down assays typically provide a reliable readout for tweezer interaction with the relevant lysine and arginine residues. Alternatively, loop binding can be evaluated through ligand titration experiments using a fluorescently labeled Taspase 1 loop (Fig. 5).[10] […] As a result, potential effects related to the orientation of the flexible loop within the context of the globular protein are not captured. Of note, the slight increase in signal at the highest compound concentration likely reflects non-specific effects such as weak autofluorescence, inner filter artifacts, or molecular crowding, highlighting limitations of the assay at this range. Despite these effects, the data points were retained to provide a complete representation of the assay response.
Fig. 5 TWAAP ligands directly address the Taspase 1 loop. Fluorescence titrations were performed using a Cy5-labeled Taspase 1 loop and switchable tweezers. […] Fluorescence intensity in solvent-treated samples was set to 100%, with ligand-treated samples normalized to this value. […] As a control, all ligands were added to Cy5 (without peptide) at their highest concentration, resulting in neglectable changes in fluorescence. Data represent the mean ± SD of three independent experiments. Composed with https://Biorender.com.

Cc1nn(Cc2cn(CCOP(=O)(O)Oc3c4c(c(OP(=O)(O)O)c5c3C3CC5c5cc6c(cc53)C3CC6c5ccccc53)C3CC4c4cc5c(cc43)C3CC5c4ccccc43)nn2)c(C)c1N=Nc1ccc(-c2cn(CCOP(=O)(O)Oc3c4c(c(OP(=O)(O)O)c5c3C3CC5c5cc6c(cc53)C3CC6c5ccccc53)C3CC4c4cc5c(cc43)C3CC5c4ccccc43)nn2)cc1 [TWAAP2]
IC50 (wildtype Taspase 1; E isomer): 17.5 µM | IC50 (wildtype Taspase 1; Z isomer): 25.4 µM | Difference in inhibitory activity between E and Z isomers (times greater potency of E isomer) (wildtype Taspase 1): no difference | Kd ([1]; E isomer): 300 nM | Kd ([1]; Z isomer): 300 nM

O=P(O)(O)Oc1c2c(c(OP(=O)(O)OCCn3cc(-c4ccc(N=Nc5ccc(-c6cn(CCOP(=O)(O)Oc7c8c(c(OP(=O)(O)O)c9c7C7CC9c9cc%10c(cc97)C7CC%10c9ccccc97)C7CC8c8cc9c(cc87)C7CC9c8ccccc87)nn6)cc5)cc4)nn3)c3c1C1CC3c3cc4c(cc31)C1CC4c3ccccc31)C1CC2c2cc3c(cc21)C1CC3c2ccccc21 [TWAB1]
IC50 (wildtype Taspase 1; E isomer): 22.3 µM | IC50 (wildtype Taspase 1; Z isomer): 17.9 µM | Difference in inhibitory activity between E and Z isomers (times greater potency of E isomer) (wildtype Taspase 1): no difference

Cc1nn(-c2ccc(-n3cc(CCOP(=O)(O)Oc4c5c(c(OP(=O)(O)O)c6c4C4CC6c6cc7c(cc64)C4CC7c6ccccc64)C4CC5c5cc6c(cc54)C4CC6c5ccccc54)nn3)cc2)c(C)c1N=Nc1ccc(-n2cc(CCOP(=O)(O)Oc3c4c(c(OP(=O)(O)O)c5c3C3CC5c5cc6c(cc53)C3CC6c5ccccc53)C3CC4c4cc5c(cc43)C3CC5c4ccccc43)nn2)cc1 [TWAAP0]
IC50 (wildtype Taspase 1; E isomer): 25.9 µM | IC50 (wildtype Taspase 1; Z isomer): 44.6 µM | Difference in inhibitory activity between E and Z isomers (times greater potency of E isomer) (wildtype Taspase 1): 1.5–1.7 times | Kd ([1]; E isomer): 200 nM | Kd ([1]; Z isomer): 300 nM

Cc1nn(-c2ccc(C#Cc3ccc(-c4cn(CCOP(=O)(O)Oc5c6c(c(OP(=O)(O)O)c7c5C5CC7c7cc8c(cc75)C5CC8c7ccccc75)C5CC6c6cc7c(cc65)C5CC7c6ccccc65)nn4)cc3)cc2)c(C)c1N=Nc1ccc(C#Cc2ccc(-c3cn(CCOP(=O)(O)Oc4c5c(c(OP(=O)(O)O)c6c4C4CC6c6cc7c(cc64)C4CC7c6ccccc64)C4CC5c5cc6c(cc54)C4CC6c5ccccc54)nn3)cc2)cc1 [TWAAP4]
IC50 (wildtype Taspase 1; E isomer): 24.7 µM | IC50 (wildtype Taspase 1; Z isomer): 37.9 µM | Difference in inhibitory activity between E and Z isomers (times greater potency of E isomer) (wildtype Taspase 1): 1.5–1.7 times | Kd ([1]; E isomer): 800 nM | Loop binding, in words ([1]; Z isomer): only a weak loop binder | Kd ([1]; Z isomer): 4900 nM

Cc1nn(-c2ccc(-c3cn(CCOP(=O)(O)Oc4c5c(c(OP(=O)(O)O)c6c4C4CC6c6cc7c(cc64)C4CC7c6ccccc64)C4CC5c5cc6c(cc54)C4CC6c5ccccc54)nn3)cc2)c(C)c1N=Nc1ccc(-c2ccc(-c3cn(CCOP(=O)(O)Oc4c5c(c(OP(=O)(O)O)c6c4C4CC6c6cc7c(cc64)C4CC7c6ccccc64)C4CC5c5cc6c(cc54)C4CC6c5ccccc54)nn3)cc2)cc1 [TWAAP3]
IC50 (wildtype Taspase 1; E isomer): 49.4 µM | IC50 (wildtype Taspase 1; Z isomer): 41.9 µM | Difference in inhibitory activity between E and Z isomers (times greater potency of E isomer) (wildtype Taspase 1): no difference | Kd ([1]; E isomer): 400 nM | Kd ([1]; Z isomer): 600 nM
